Measured values: patent US6172074A, “Imidazopyridines and oxazolopyridines” (Byk Gulden Lomberg Chemische Fabrik GmbH, priority 1996, dated 2001)
Counter-ions that a name gives are not always drawn.

Test system: PDE4
Test: Inhibition of the PDE4 activity (Bauer and Schwabe method, adapted to microtiter plates)
Format: biochemical
Details: inhibitory concentration as -log IC50 (mol/l)

SMILES	-log IC50
COc1ccc(-c2nc3ncccc3o2)c2c1OC1(CCCC1)C2 [Compound 1, 2-(2,3-Dihydro-7-methoxybenzofuran-2-spiro-1'-cyclopentan-4-yl)oxazolo[4,5-b]pyridine]	7.93
COc1ccc(-c2nc3cccnc3o2)c2c1OC1(CCCC1)C2 [Compound 2, 2-(2,3-Dihydro-7-methoxybenzofuran-2-spiro-1'-cyclopentan-4-yl)oxazolo[5,4-b]pyridine]	6.61
COc1ccc(-c2nc3cnccc3o2)c2c1OC1(CCCC1)C2 [Compound 3, 2-(2,3-Dihydro-7-methoxybenzofuran-2-spiro-1'-cyclopentan-4-yl)oxazolo[4,5-c]pyridine]	8.76
COc1ccc(-c2nc3cnccc3[nH]2)c2c1OC1(CCCC1)C2 [Compound 4, 2-(2,3-Dihydro-7-methoxybenzofuran-2-spiro-1'-cyclopentan-4-yl)imidazolo[4,5-c]pyridin]	8.08
COc1ccc(-c2nc3cnccc3[nH]2)c2c1OC1(CCCCC1)C2 [Compound 5, 2-(2,3-Dihydro-7-methoxybenzofuran-2-spiro-1'-cyclohexan-4-yl)imidazolo[4,5-c]pyridine]	7.52
COc1ccc(-c2nc3ncccc3[nH]2)c2c1OC1(CCCCC1)C2 [Compound 6, 2-(2,3-Dihydro-7-methoxybenzofuran-2-spiro-1'-cyclohexan-4-yl)imidazo[4,5-b]pyridine dihydrochloride hemihydrate]	6.90
COc1ccc(-c2nc3c(Cl)nccc3[nH]2)c2c1OC1(CCCC1)C2 [Compound 7, 4-Chloro-2-(2,3-dihydro-7-methoxybenzofuran-2-spiro-1'-cyclopentan-4-yl)imidazo[4,5-c]pyridine]	7.98
